Data: patent US7282556B2, “Polynucleotides and polypeptides relating to the modulation of SIRPα-CD47” (Emory University, priority 2001, dated 2007)
Converted amounts (≈) assume the structure as drawn. Where a SMILES comes first, the peptide text is derived from it. Bridges are numbered along the chain shown (N, C = ends).

Assays:
SIRPβ-GST = target: T1, SIRPβ-GST (Homo sapiens, UniProt O00241); experiment: CD47-AP binding to SIRPβ-GST coated wells; conditions: FIG. 2C
T1 construct: The extracellular domain of SIRPα1, SIRPβ1 and GST fusion proteins were produced after transfected into 293E cells; made in house; host or cells: 293E cells
T1 sequence (O00241 30-371 limits assumed): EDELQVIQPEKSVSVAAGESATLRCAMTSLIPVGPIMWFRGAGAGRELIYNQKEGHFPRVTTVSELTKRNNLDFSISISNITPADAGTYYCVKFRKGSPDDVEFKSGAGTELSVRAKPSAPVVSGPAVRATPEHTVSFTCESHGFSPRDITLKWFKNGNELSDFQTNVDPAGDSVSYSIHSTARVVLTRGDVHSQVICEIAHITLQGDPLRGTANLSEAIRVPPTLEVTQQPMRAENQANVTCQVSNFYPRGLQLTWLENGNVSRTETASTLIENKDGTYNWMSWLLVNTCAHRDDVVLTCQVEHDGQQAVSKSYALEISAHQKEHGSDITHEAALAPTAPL
Experimental: (§1) FIG. 2C (right panel) is a bar graph that illustrates CD47-AP specifically binds to SIRPα-GST fusion protein but not SIRPβ-GST. In this panel, microtiter plates were coated with either SIRPα-GST or highly similar SIRPβ-GST (10 μg/ml) followed by blocking with BSA. To each well was then added recombinant CD47-AP followed by washing. Bound CD47-AP was then detected by assay for alkaline phosphatase after addition of appropriate substrate.
Since the above results and those of others (Jiang, et al J. Biol. Chem., 274: 559, Seiffert, et al., Blood, 94: 3633, Han, et al., J. Biol. Chem., 275: 37984, Oldenborg, et al., Science, 288: 2051) strongly implicate CD47 as a membrane receptor for SIRPα, experiments were performed to test the direct binding of the IgV loop of CD47 to SIRPα (FIG. 2B). A recombinant CD47 IgV loop fused to alkaline phosphatase (CD47-AP) was constructed as detailed in the methods and expressed in mammalian (CHO) cells in order to allow for proper folding and glycosylation. The expressed CD47-AP fusion protein was then purified by immunoaffinity chromatography using anti CD47 mAb PF3.1-Sepharose. The structure of CD47 IgV domain in the purified CD47-AP was further tested for the ability to react with multiple functionally blocking anti-CD47 extracellular domain-reactive mAbs (Liu, et al., J. Biol. Chem., 276: 40156). […]

[1] = target: T2, CD47-SIRPα1 binding (CD47-AP / SIRPα1-GST) (Homo sapiens, UniProt P78324); experiment: CD47-AP binding to immobilized SIRPα1-GST (alkaline phosphatase activity); conditions: SIRPα-GST coated 2 μg/ml, CD47-AP 1-2 μg/ml
T2 construct: Microtiter plates were coated with SIRPα1 extracellular domain fusion protein (SIRPα1-GST, 1 μg/ml) for 2 hr; A construct consisting of the extracellular domain of human CD47 fused to the catalytic domain of human placental AP; made in house
T2 sequence (P78324 31-373 limits assumed): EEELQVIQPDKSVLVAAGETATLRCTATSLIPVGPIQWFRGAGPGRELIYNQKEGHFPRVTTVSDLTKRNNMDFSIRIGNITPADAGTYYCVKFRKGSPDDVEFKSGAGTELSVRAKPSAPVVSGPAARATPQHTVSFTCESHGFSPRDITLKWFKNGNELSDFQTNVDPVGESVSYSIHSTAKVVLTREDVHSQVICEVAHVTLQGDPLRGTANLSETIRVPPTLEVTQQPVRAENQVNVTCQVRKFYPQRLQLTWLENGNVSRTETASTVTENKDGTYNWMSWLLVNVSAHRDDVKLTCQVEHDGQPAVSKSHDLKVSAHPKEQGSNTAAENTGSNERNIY
Experimental: as §1
FIGS. 6A-6C are graphs that illustrate the effects of synthetic peptides on CD47-SIRPα binding. FIG. 6A illustrates the effect of peptide C5/D5.1 on CD47-SIRPα binding. […] After blocking, CD47-AP was added in the absence or presence of synthetic peptides C5/D5.1 and control peptides C5/D5.4, C5/D5.11 and C5/D5.12 (used as 1 mM each). “*” p<0.01. CD47-AP binding was then detected by assay of alkaline phosphatase activity and normalized with respect to binding in the absence of any peptide (CD47-AP only). FIG. 6B illustrates the effect of dose-dependent inhibition of CD47-SIRPα1 binding by peptide C5/D5.1 performed as in FIG. 6A but with increasing concentrations of peptide as indicated. […] Binding of these proteins were detected by a goat anti-GST antibody followed by peroxidase conjugated anti-goat secondary (for detecting SIRPα1-GST) or directly developed for alkaline phosphatase activity (for detecting CD47-AP). […]

[2] = Solubility of synthesized peptides in aqueous phase; assay type: physicochemical; conditions: for solubility: in aqueous phase
mAb C5/D5 = experiment: Peptide competition of phage binding to C5/D5 by ELISA; conditions: up to 10 mM
Experimental: To mimic the possible constrained structure in phage, in vitro oxidation was performed after peptide synthesis to introduce disulfide bonds between Cysteine residues in these peptides. […] There are total four tryptophan (W) residues in CD47. W2 is part of the signal peptide and therefore is not present in the mature protein. W58 is present in the N-terminus extracellular IgV-like domain of CD47 and is conserved among many IgV super family members. W136 is also located in the putative extracellular domain whereas W157 is thought to be in a transmembrane region of the protein (Lindberg, et al., J. Cell Biol., 123(2): 485-96, 1993). Amino acids Arginine and Valine (RV/L), present in many selected CL10 and LL9 phages are adjacent in CD47 at amino acid position 132-133, two amino acids upstream from W136. Both amino acids R and V are also found close to W58. Thus, the C5/D5-binding sequence on CD47 is likely to comprise several distant residues brought into proximity by the folding of the protein.
Antibody phage binding assays were performed in microtiter plate wells (Limbro-Titertek, Flow Laboratories) which were coated with relevant antibodies (20 μg/ml) for two hours at room temperature. All subsequent incubations were performed at room temperature. […] Microtiter wells were then analyzed in a microtiter plate reader at 405 nanometers (nm).

CD47-AP: recombinant CD47 IgV loop fused to alkaline phosphatase
binding of CD47-AP to SIRPβ-GST (SIRPβ-GST): lack of binding
binding of AP fusion protein to SIRPα-GST (AP activity, OD405) [1]: bound

CC[C@H](C)[C@@H]1NC(=O)[C@H](C(C)C)NC(=O)[C@H](CCCNC(=N)N)NC(=O)[C@H](Cc2c[nH]cn2)NC(=O)[C@@H](N)CSSC[C@@H](C(=O)O)NC(=O)[C@H](CCCNC(=N)N)NC(=O)[C@H](C(C)C)NC(=O)[C@H](Cc2c[nH]c3ccccc23)NC(=O)CNC(=O)[C@H]([C@@H](C)O)NC(=O)CNC1=O [C5/D5.11, CHRVIGTGWVRC] (H-CHRVIGTGWVRC-OH; disulfide 1-12; N-terminus and C-terminus assumed)
solubility [2]: 10 mM (≈ 13.8 mg/mL)

CC[C@H](C)[C@@H]1NC(=O)[C@H](C(C)C)NC(=O)[C@H](CCCNC(=N)N)NC(=O)[C@H](CCC(=O)O)NC(=O)[C@@H](N)CSSC[C@@H](C(=O)O)NC(=O)[C@H](CCCNC(=N)N)NC(=O)[C@H](C(C)C)NC(=O)[C@H](Cc2c[nH]c3ccccc23)NC(=O)CNC(=O)[C@H]([C@@H](C)O)NC(=O)CNC1=O [C5/D5.1, CERVIGTGWVRC] (H-CERVIGTGWVRC-OH; disulfide 1-12; N-terminus and C-terminus assumed)
solubility [2]: 10 mM (≈ 13.8 mg/mL)

CC[C@H](C)[C@@H]1NC(=O)[C@H](C(C)C)NC(=O)CNC(=O)[C@H](CCCNC(=N)N)NC(=O)[C@H](Cc2c[nH]c3ccccc23)NC(=O)[C@H]([C@@H](C)O)NC(=O)[C@H](CCCNC(=N)N)NC(=O)[C@H](C(C)C)NC(=O)CNC(=O)[C@@H](N)CSSC[C@@H](C(=O)O)NC(=O)[C@H](CCC(=O)O)NC1=O [C5/D5.5, CGVRTWRGVIEC] (H-CGVRTWRGVIEC-OH; disulfide 1-12; N-terminus and C-terminus assumed)
solubility (in words) [2]: limited solubility
solubility [2]: 2 mM (≈ 2.75 mg/mL)

CC[C@H](C)[C@H](NC(=O)[C@@H](NC(=O)[C@H](CCCNC(=N)N)NC(=O)[C@@H](N)CCC(=O)O)C(C)C)C(=O)NCC(=O)N[C@H](C(=O)NCC(=O)N[C@@H](Cc1c[nH]c2ccccc12)C(=O)N[C@H](C(=O)N[C@@H](CCCNC(=N)N)C(=O)O)C(C)C)[C@@H](C)O [C5/D5.4, ERVIGTGWVR] (H-ERVIGTGWVR-OH; N-terminus and C-terminus assumed)
solubility [2]: 10 mM (≈ 11.7 mg/mL)

CC(C)[C@@H]1NC(=O)[C@H](Cc2c[nH]c3ccccc23)NC(=O)CNC(=O)[C@H](Cc2c[nH]cn2)NC(=O)CNC(=O)[C@@H]2CCCN2C(=O)[C@H](C(C)C)NC(=O)[C@H](CCCNC(=N)N)NC(=O)[C@H](Cc2c[nH]cn2)NC(=O)[C@@H](N)CSSC[C@@H](C(=O)O)NC(=O)[C@H](CCCNC(=N)N)NC1=O [C5/D5.12, CHRVPGHGWVRC] (H-CHRVPGHGWVRC-OH; disulfide 1-12; N-terminus and C-terminus assumed)
solubility [2]: 1 mM (≈ 1.4 mg/mL)

CRRVIGRVGCGC (listed as Homo sapiens) [C5/D5.3]
inhibitory effect of peptide on phage binding to C5/D5 (mAb C5/D5): no inhibitory effects
